Where “and” joins values, the source holds several entries; their conditions need not be identical. Identical values can stand only once. Like-named read-outs stand apart in the source and are kept apart here.
Columns and labels:
Pseudomonas = assay: Bactericidal activity of PFA versus POAA; type: cell-based; conditions: P. aeruginosa ATCC 15442, 5 minutes, dirty conditions, 20° C.
From the text: (§1) Staphylococcus, Enterococcus and Pseudomonas pathogens were used to evaluate the micro efficacy of PFA in comparison to POAA.

Staphylococcus = assay: Bactericidal activity of PFA versus POAA; type: cell-based; conditions: S. aureus ATCC 6538, 5 minutes, dirty conditions, 20° C.
From the text: as §1

Enterococcus = assay: Bactericidal activity of PFA versus POAA; type: cell-based; conditions: E. hirae ATCC 10541, 5 minutes, dirty conditions, 20° C.
From the text: as §1

[1] = system: Nalidixic acid resistant E. coli O157:H7; assay: Reduction of E. coli on raw beef brisket, dip treatment; type: cell-based; conditions: for CFU/cm2 / CFU/ml / Log CFU/cm2: replicates
From the text: Nalidixic acid resistant E. coli O157:H7 was used to evaluate the efficacy in treatment with performic acid composition on raw beef brisket according to the conditions shown in Table 32.

[2] = system: L. monocytogenes (ATCC 19114, 19116 and 4594); assay: Low temperature disinfectant efficacy, log reduction; type: cell-based; conditions: 4° C.; 1 minute contact exposure; FIG. 32
Protocol: Micro efficacy of PFA according to the present invention was evaluated under low temperature, low oxygen conditions employing the formulation of Table 41.
The log reduction of L. monocytogenes (ATCC 19114, 19116 and 4594) were evaluated at low temperature (4° C.) comparing peroxvacetic acid to the peroxyformic acid generated according to the formulation shown in Table 41. The results are shown in FIG. 32 comparing disinfectant efficacy after a 1 minute contact exposure to the disinfectants.
As a result, the performic acid generated has a great fit for application in brewery plants. The exceptional antimicrobial efficacy of performic acid at low temperature meets the requirement of cold temperature environment of brewery operations, while common biocides including peroxycarboxylic acids such as peracetic acids will suffer the efficacy lose under low temperatures. In addition, formic acid that always coexists with performic acid is a very efficient acidulant, which will help prevent/dissolve beer stone, thus eliminate the additional acid wash. As a further benefit the performic acid composition has very high performic acid to H2O2 ratio, which practically eliminates the O2 that could potentially introduced to the liquid being processed (i.e. beer) and interfere with the organoleptic effects and negative taste effects.

[3] = system: microorganisms in produced water; assay: Microbial efficacy by ATP concentration (AccuCount) in produced water; type: cell-based; conditions: PFA 5 ppm active, compounds 50 ppm product
Protocol: Microbial efficacy of PFA alone (5 ppm active) or PFA (5 ppm active) in conjunction with the compounds (50 ppm product) listed in the Table 20 below and in FIG. 13 were tested by measuring the ATP concentration in the untreated and treated produced water samples (using AccuCount technology). Reductions in bacterial numbers were tabulated as % kill for each experiment. The results are represented in FIG. 13 and in Table 20.

Various pathogens = type: cell-based; conditions: for Result (Passing Requirement 5 log reduction): EN 13727
[4] = Performance of corrosion inhibitor in sea water and produced water systems (% protection); conditions: 200 ppm active performic acid, 50 ppm corrosion inhibitor (PFA: no inhibitor)
Protocol: 200 ppm active of performic acid was added. 50 ppm of corrosion inhibitor was added for corrosion protection. % protection was plotted by comparison of the corrosion rate in the presence of corrosion inhibitor to the corrosion rate with no corrosion inhibitor addition (PFA or PFA-PW) as shown in Table 30.

[5] = system: microbes in water sample (80% tap water 20% produced water); assay: Kill performance (log reduction) in water sample, 5 min exposure; type: cell-based; conditions: exposure time 5 min
From the text: Synergy examples range from pH 0 to 12 at varied concentrations. Synergistic activity is defined as a technical effect that exceeds the addition of the cumulative performance of the materials in formulation.
As referred to in Table 8 the following commercially-available test substances were employed: POAA (15% POAA, 10% H2O2), PAA 1 (21% peracetic, 3.5% H2O2), POOA (0.5% POOA, 6.8% H2O2).

[6] = system: acid producing bacteria (APBs); assay: Biocidal performance on treated produced water, bug bottles serial dilution; type: cell-based; conditions: PFA treatment of produced water
Protocol: Treatment of produced water with performic acid was evaluated using performic acid compositions containing a corrosion inhibitor. As shown in FIG. 28 (grey scale) the lighter color […] in the water, whereas the darker shading indicates no growth. Untreated has E5 bacteria/mL; 0.5 ppm PFA treated has E3 bacteria/mL. The bacterial bug bottles are specific in supporting growth of acid producing bacteria (APBs). Growth of APB is indicated by a color change from dark to light color (pink to yellow). 1 mL of initial inoculum was diluted 10 times in subsequent bottles. Therefore each bottle indicates a El bacteria/mL. Based on the results observed by growth/no growth of bacteria it can be concluded that PFA treatment results in at least a reduction of 2 log (equivalent of E2 bacteria/mL) bacteria.

[7] = 220 ppm POAA, pH 8.86, 10 minutes, raw beef brisket
[8] = 180 ppm PFA, pH 8.76, 10 minutes, raw beef brisket

CC(=O)OO [POAA, peroxyacetic acid, reference compound]
Average CFU/mL (Pseudomonas; 24.8 ppm POAA × 1.25, pH 6.73): <140 CFU/mL
Log10 Growth (Pseudomonas; 24.8 ppm POAA × 1.25, pH 6.73): <2.15
Average CFU/mL (Pseudomonas; 37.6 ppm POAA × 1.25, pH 6.90): <140 CFU/mL
Log10 Growth (Pseudomonas; 37.6 ppm POAA × 1.25, pH 6.90): <2.15
Average CFU/mL (Pseudomonas; 62.4 ppm POAA × 1.25, pH 6.98): <140 CFU/mL
Log10 Growth (Pseudomonas; 62.4 ppm POAA × 1.25, pH 6.98): <2.15
Average CFU/mL (Staphylococcus; 24.8 ppm POAA × 1.25, pH 6.73): 1.77E+05 CFU/mL
Log10 Growth (Staphylococcus; 24.8 ppm POAA × 1.25, pH 6.73): 5.25
Average CFU/mL (Staphylococcus; 37.6 ppm POAA × 1.25, pH 6.90): <140 CFU/mL
Log10 Growth (Staphylococcus; 37.6 ppm POAA × 1.25, pH 6.90): <2.15
Average CFU/mL (Staphylococcus; 62.4 ppm POAA × 1.25, pH 6.98): <140 CFU/mL
Log10 Growth (Staphylococcus; 62.4 ppm POAA × 1.25, pH 6.98): <2.15
Average CFU/mL (Enterococcus; 24.8 ppm POAA × 1.25, pH 6.73): >3.30E+05 CFU/mL
Log10 Growth (Enterococcus; 24.8 ppm POAA × 1.25, pH 6.73): >5.52
Average CFU/mL (Enterococcus; 37.6 ppm POAA × 1.25, pH 6.90): 9.25E+03 CFU/mL
Log10 Growth (Enterococcus; 37.6 ppm POAA × 1.25, pH 6.90): 3.97
Average CFU/mL (Enterococcus; 62.4 ppm POAA × 1.25, pH 6.98): <140 CFU/mL
Log10 Growth (Enterococcus; 62.4 ppm POAA × 1.25, pH 6.98): <2.15
Average Log CFU/cm2 [1, 7]: 2.98 Log CFU/cm2
Log reduction [1, 7]: 1.06
CFU/cm2 [1, 7]: 1.20E+03 CFU/cm2 and 9.00E+02 CFU/cm2 and 8.00E+02 CFU/cm2
CFU/ml [1, 7]: 6.00E+02 CFU/ml and 4.50E+02 CFU/ml and 4.00E+02 CFU/ml
Log CFU/cm2 [1, 7]: 3.08 Log CFU/cm2 and 2.95 Log CFU/cm2 and 2.90 Log CFU/cm2
Log reduction ([1]; 220 ppm POAA, pH 8.86, dip for 10 minutes, ambient): 1.06
disinfectant efficacy at the lower temperature (in words) [2]: significantly decreases

O=COO [PFA, peroxyformic acid]
Average CFU/mL (Pseudomonas; 20 ppm PFA × 1.25, pH 6.61): <140 CFU/mL
Log10 Growth (Pseudomonas; 20 ppm PFA × 1.25, pH 6.61): <2.15
Average CFU/mL (Pseudomonas; 30 ppm PFA × 1.25, pH 6.74): <140 CFU/mL
Log10 Growth (Pseudomonas; 30 ppm PFA × 1.25, pH 6.74): <2.15
Average CFU/mL (Pseudomonas; 50 ppm PFA × 1.25, pH 6.60): <140 CFU/mL
Log10 Growth (Pseudomonas; 50 ppm PFA × 1.25, pH 6.60): <2.15
Average CFU/mL (Staphylococcus; 20 ppm PFA × 1.25, pH 6.61): <140 CFU/mL
Log10 Growth (Staphylococcus; 20 ppm PFA × 1.25, pH 6.61): <2.15
Average CFU/mL (Staphylococcus; 30 ppm PFA × 1.25, pH 6.74): <140 CFU/mL
Log10 Growth (Staphylococcus; 30 ppm PFA × 1.25, pH 6.74): <2.15
Average CFU/mL (Staphylococcus; 50 ppm PFA × 1.25, pH 6.60): <140 CFU/mL
Log10 Growth (Staphylococcus; 50 ppm PFA × 1.25, pH 6.60): <2.15
Average CFU/mL (Enterococcus; 20 ppm PFA × 1.25, pH 6.61): 6.30E+03 CFU/mL
Log10 Growth (Enterococcus; 20 ppm PFA × 1.25, pH 6.61): 3.80
Average CFU/mL (Enterococcus; 30 ppm PFA × 1.25, pH 6.74): 2.15E+02 CFU/mL
Log10 Growth (Enterococcus; 30 ppm PFA × 1.25, pH 6.74): 2.33
Average CFU/mL (Enterococcus; 50 ppm PFA × 1.25, pH 6.60): <140 CFU/mL
Log10 Growth (Enterococcus; 50 ppm PFA × 1.25, pH 6.60): <2.15
Average Log CFU/cm2 [1, 8]: 3.22 Log CFU/cm2
Log reduction [1, 8]: 0.83
CFU/cm2 [1, 8]: 1.84E+03 CFU/cm2 and 1.42E+03 CFU/cm2 and 1.72E+03 CFU/cm2
CFU/ml [1, 8]: 9.20E+02 CFU/ml and 7.10E+02 CFU/ml and 8.60E+02 CFU/ml
Log CFU/cm2 [1, 8]: 3.26 Log CFU/cm2 and 3.15 Log CFU/cm2 and 3.24 Log CFU/cm2
% Kill [3]: 87.9%
disinfectant efficacy at the lower temperature (in words) [2]: does not decrease
Result (Passing Requirement 4 log reduction) (Various pathogens; EN 13624, Aspergillus brasiliensis ATCC 1604, 450 ppm PFA pH 6-7): PASS
Result (Passing Requirement 4 log reduction) (Various pathogens; EN 13624, Canidia albicans ATCC 10231, 450 ppm PFA pH 6-7): PASS
Result (Passing Requirement 3 log reduction) (Various pathogens; EN 13704, Bacillus subtilis ATCC 6633, 450 ppm PFA pH 6-7): PASS
Result (Passing Requirement 5 log reduction) (Various pathogens; Enterococcus hirae ATCC 10541, 450 ppm PFA pH 6-7): PASS
Result (Passing Requirement 5 log reduction) (Various pathogens; P. aeruginosa ATCC 15442, 450 ppm PFA pH 6-7): PASS
Result (Passing Requirement 5 log reduction) (Various pathogens; Staph. Aureus ATCC 6538, 450 ppm PFA pH 6-7): PASS
Result (Passing Requirement 4 log reduction) (Various pathogens; pH 6): PASS
% Protection, 3 hrs after dosing ([4]; produced water (PW)): −237.2%
% Protection, 8 hrs after dosing ([4]; produced water (PW)): −228.1%
% Protection, Last hour of testing ([4]; produced water (PW)): −261.2%
% Protection, 3 hrs after dosing ([4]; sea water): −10666.2%
% Protection, 8 hrs after dosing ([4]; sea water): −13447.5%
% Protection, Last hour of testing ([4]; sea water): −14481.9%
Log reduction ([5]; 2 ppm PFA): 3.01
Log reduction ([5]; 8.5 ppm PFA): 5.69
Log reduction ([5]; 10 ppm PFA): 5.28
reduction of bacteria [6]: ≥ 2 log
